# Laboratory results taken from patent US9689040B2, “Selective inhibitors of tumor-initiating cells” (Children's Medical Center Corporation, priority 2011, dated 2017).
# Read-outs that look alike come from different tables or passages of the source.
# Assays:
# TGS transcripts = settings: Instance ID 6709, cited from earlier work
# BPLER cells [1] = assay: Cell viability after drug treatment (CellTiterGlo / Trypan-Blue); assay type: cell-based, human; settings: increasing doses, 24 hr
# HMLER cells = assay: qRT-PCR of TGS transcripts after TSA treatment; assay type: cell-based, human; settings: 1 μM TSA, 24 hr
# Description: (§1) The CMAP data predicted that TSA would suppress expression of 52 TGS transcripts by ≧1.8-fold (Table 6). We measured the change in expression of the top 11 of these transcripts in BPLER and HMLER cells treated with TSA.
# (§2) qRT-PCR analysis was performed as described^41. Briefly, total RNA was extracted with TRIZOL (Invitrogen) and cDNA prepared from 600-900 ng total RNA using TH[…] kit (Invitrogen) as per the manufacturer's instructions. 2.5 ul of diluted cDNA (1:20) was used as template for qPCR using POWER SYBR-GREEN MASTER MIX (Applied Biosystems) and BIORAD C1000 THERMAL CYCLER (Biorad). Primer sequences are available upon request. Relative CT values were normalized to […]-actin and converted to a linear scale using the −ΔCT method.
# BPLER cells [2] = assay: qRT-PCR of TGS transcripts after TSA treatment; assay type: cell-based, human; settings: 1 μM TSA, 24 hr
# Description: as §1, §2
smiles,measurement,setting,value
"CC(/C=C/C(=O)NO)=C\[C@@H](C)C(=O)c1ccc(N(C)C)cc1 [TSA, Trichostatin A]",Amplitude,"TGS transcripts; BUB1, probe set 215509_s_at",−0.84
same,Amplitude,"TGS transcripts; C7orf25 /// PSMA2, probe set 221573_at",−0.7
same,Amplitude,"TGS transcripts; C12orf10, probe set 218220_at",−0.5
same,Amplitude,"TGS transcripts; C19orf29, probe set 215954_s_at",−0.49
same,Amplitude,"TGS transcripts; CANX, probe set 208852_s_at",−0.55
same,Amplitude,"TGS transcripts; CANX, probe set 208853_s_at",−0.81
same,Amplitude,"TGS transcripts; CCNA2, probe set 203418_at",−0.83
same,Amplitude,"TGS transcripts; CCNA2, probe set 213226_at",−0.63
same,Amplitude,"TGS transcripts; CDC5L, probe set 209055_s_at",−1.19
same,Amplitude,"TGS transcripts; CDK13, probe set 207318_s_at",−0.87
same,Amplitude,"TGS transcripts; CDK13, probe set 207319_s_at",−0.79
same,Amplitude,"TGS transcripts; CDK17, probe set 206474_at",−0.74
same,Amplitude,"TGS transcripts; CDK17, probe set 221918_at",−0.66
same,Amplitude,"TGS transcripts; DDX19A /// DDX19B, probe set 202576_s_at",−0.73
same,Amplitude,"TGS transcripts; DHX8, probe set 203334_at",−0.45
same,Amplitude,"TGS transcripts; DNAJC11, probe set 215792_s_at",−0.47
same,Amplitude,"TGS transcripts; DYSF, probe set 218660_at",−0.43
same,Amplitude,"TGS transcripts; FYCO1, probe set 218204_s_at",−0.5
same,Amplitude,"TGS transcripts; GAPDH, probe set AFFX-HUMGAPDH/M33197_5_at",−1.17
same,Amplitude,"TGS transcripts; GAPDH, probe set AFFX-HUMGAPDH/M33197_M_at",−0.62
same,Amplitude,"TGS transcripts; HIPK3, probe set 210148_at",−0.46
same,Amplitude,"TGS transcripts; LSM2, probe set 209449_at",−0.44
same,Amplitude,"TGS transcripts; MCL1, probe set 200796_s_at",−1.46
same,Amplitude,"TGS transcripts; MFSD5, probe set 212861_at",−0.77
same,Amplitude,"TGS transcripts; MGAT2, probe set 203101_s_at",−0.67
same,Amplitude,"TGS transcripts; MTA2, probe set 203444_s_at",−0.74
same,Amplitude,"TGS transcripts; NAA38, probe set 219119_at",−0.47
same,Amplitude,"TGS transcripts; NDC80, probe set 204162_at",−1.07
same,Amplitude,"TGS transcripts; NME3, probe set 204862_s_at",−0.6
same,Amplitude,"TGS transcripts; NUP205, probe set 212247_at",−0.65
same,Amplitude,"TGS transcripts; PDCD4, probe set 202731_at",−1.07
same,Amplitude,"TGS transcripts; PFKL, probe set 201102_s_at",−0.67
same,Amplitude,"TGS transcripts; POLR2F, probe set 209511_at",−0.43
same,Amplitude,"TGS transcripts; PRC1, probe set 218009_s_at",−0.67
same,Amplitude,"TGS transcripts; PSMA1, probe set 201676_x_at",−0.4
same,Amplitude,"TGS transcripts; PSMA1, probe set 210759_s_at",−0.74
same,Amplitude,"TGS transcripts; PSMA1, probe set 211746_x_at",−0.45
same,Amplitude,"TGS transcripts; PSMA2, probe set 201317_s_at",−0.41
same,Amplitude,"TGS transcripts; PSMA3, probe set 201532_at",−0.63
same,Amplitude,"TGS transcripts; PSMB4, probe set 202243_s_at",−0.43
same,Amplitude,"TGS transcripts; PSMC1, probe set 204219_s_at",−0.53
same,Amplitude,"TGS transcripts; PSMC3, probe set 201267_s_at",−1.66
same,Amplitude,"TGS transcripts; PSMD7, probe set 201705_at",−1.01
same,Amplitude,"TGS transcripts; RAN, probe set 200750_s_at",−0.48
same,Amplitude,"TGS transcripts; RBM22, probe set 218134_s_at",−0.75
same,Amplitude,"TGS transcripts; RBMX, probe set 213762_x_at",−0.58
same,Amplitude,"TGS transcripts; SCD, probe set 211162_x_at",−0.92
same,Amplitude,"TGS transcripts; SCD, probe set 211708_s_at",−0.83
same,Amplitude,"TGS transcripts; SH3GL3, probe set 211565_at",−0.64
same,Amplitude,"TGS transcripts; SNW1, probe set 215424_s_at",−1.16
same,Amplitude,"TGS transcripts; TMED3, probe set 208837_at",−0.42
same,Amplitude,"TGS transcripts; TMEM14B, probe set 221452_s_at",−0.48
same,Amplitude,"TGS transcripts; TNPO1, probe set 207657_x_at",−0.42
same,Amplitude,"TGS transcripts; TNPO1, probe set 209226_s_at",−0.68
same,Amplitude,"TGS transcripts; USP39, probe set 217829_s_at",−0.56
same,Amplitude,TGS transcripts; probe set 200749_at (gene symbol —),−0.5
same,sensitivity of BPLER relative to HMLER cells (viability),BPLER cells [1],selectively lethal for BPLER compared to HMLER
same,BPE viability,BPE cells; at the indicated dose,no effect on BPE viability
same,combination with bortezomib: cytotoxicity in untransformed BPE cells,BPE cells; in vitro,not cytotoxic
same,expression of the top 11 predicted TGS transcripts,HMLER cells,All but two of these also had significantly reduced expression
same,expression of the top 11 predicted TGS transcripts,BPLER cells [2],significantly decreased
